Source: US20230398130A1, “METHODS AND COMPOSITIONS FOR DIFFERENTIATING STEM CELLS” (Massachusetts Institute of Technology, priority 2020, published 2023)

Legend:
ISC-enriched organoids [1] = assay: Primary screen, 384-well 2.5-D organoid differentiation (ENR+CD, 6 days): basal lysozyme secretion (LYZ.NS); format: cell-based, murine; details: for Dose.FC.LYZ.NS: FC vs plate median; for SSMD.LYZ.NS: strictly standardized mean difference; for Dose.FC.LYZ.NS (log 2 fold change): vs plate median
Description: (§1) High-throughput screening.

ISC-enriched organoids [2] = assay: Primary screen, 384-well 2.5-D organoid differentiation (ENR+CD, 6 days, Target Selective Inhibitor Library, vs whole-plate median): ATP (CellTiter-Glo 3D, CTG); details: for Dose.FC.CTG: FC vs plate median; for SSMD.CTG: strictly standardized mean difference; for Dose.FC.CTG (log 2 fold change): vs plate median
ISC-enriched organoids [3] = assay: Primary screen, 384-well 2.5-D organoid differentiation (ENR+CD, 6 days): carbachol-induced lysozyme secretion (LYZ.S); format: cell-based, murine; details: for Dose.FC.LYZ.S: FC vs plate median; for Z.LYZ.S: standard z score; for SSMD.LYZ.S: strictly standardized mean difference; for Dose.FC.LYZ.S (log 2 fold change): vs plate median
Description: as §1

[4] = Dose 0.08 uM, standard z score of FC
[5] = Dose 0.40 uM, standard z score of FC
[6] = Dose 2.00 uM, standard z score of FC
[7] = Dose 10.00 uM, standard z score of FC
[8] = Dose 0.08 uM, primary screen, standard z score
[9] = Dose 0.40 uM, primary screen, standard z score
[10] = Dose 2.00 uM, primary screen, standard z score
[11] = Dose 10.00 uM, primary screen, standard z score
[12] = primary screen, 1st of the 4 dose lines of the treatment (dose not given)
[13] = primary screen, 2nd of the 4 dose lines of the treatment (dose not given)
[14] = primary screen, 3rd of the 4 dose lines of the treatment (dose not given)
[15] = primary screen, 4th of the 4 dose lines of the treatment (dose not given)

Cc1ccc([C@@H]2O[C@H](CO)[C@@H](O)[C@H](O)[C@H]2O)cc1Cc1ccc(-c2ccc(F)cc2)s1 [Canagliflozin]
Dose.FC.LYZ.NS (ISC-enriched organoids [1]; Dose 0.08 uM, ENR+CD, 6 days): −0.027 log 2 fold change | Z.LYZ.NS (ISC-enriched organoids [1]; [4]): −0.233 | Dose.FC.LYZ.NS (ISC-enriched organoids [1]; Dose 0.40 uM, ENR+CD, 6 days): −0.046 log 2 fold change | Z.LYZ.NS (ISC-enriched organoids [1]; [5]): −0.398 | Dose.FC.LYZ.NS (ISC-enriched organoids [1]; Dose 2.00 uM, ENR+CD, 6 days): 0.025 log 2 fold change | Z.LYZ.NS (ISC-enriched organoids [1]; [6]): 0.214 | Dose.FC.LYZ.NS (ISC-enriched organoids [1]; Dose 10.00 uM, ENR+CD, 6 days): −0.064 log 2 fold change | Z.LYZ.NS (ISC-enriched organoids [1]; [7]): −0.556 | Dose.FC.CTG (ISC-enriched organoids [2]; Dose 0.08 uM, ENR+CD, 6 days): −0.240 log 2 fold change | Z.CTG (ISC-enriched organoids [2]; [4]): −0.572 | Dose.FC.CTG (ISC-enriched organoids [2]; Dose 0.40 uM, ENR+CD, 6 days): −0.098 log 2 fold change | Z.CTG (ISC-enriched organoids [2]; [5]): −0.235 | Dose.FC.CTG (ISC-enriched organoids [2]; Dose 2.00 uM, ENR+CD, 6 days): 0.042 log 2 fold change | Z.CTG (ISC-enriched organoids [2]; [6]): 0.101 | Dose.FC.CTG (ISC-enriched organoids [2]; Dose 10.00 uM, ENR+CD, 6 days): −0.079 log 2 fold change | Z.CTG (ISC-enriched organoids [2]; [7]): −0.188 | Dose.FC.LYZ.S (ISC-enriched organoids [3]; Dose 0.08 uM, ENR+CD, 6 days): 0.014 log 2 fold change | Dose.FC.LYZ.S (ISC-enriched organoids [3]; Dose 0.40 uM, ENR+CD, 6 days): −0.032 log 2 fold change | Dose.FC.LYZ.S (ISC-enriched organoids [3]; Dose 2.00 uM, ENR+CD, 6 days): 0.028 log 2 fold change | Dose.FC.LYZ.S (ISC-enriched organoids [3]; Dose 10.00 uM, ENR+CD, 6 days): −0.033 log 2 fold change

Clc1ccc(N/N=C(\c2ccccc2)c2ccccn2)nc1 [JIB-04]
Dose.FC.LYZ.NS (ISC-enriched organoids [1]; Dose 0.08 uM, primary screen): 0.178 log 2 fold change | Z.LYZ.NS (ISC-enriched organoids [1]; [8]): 1.549 | Dose.FC.LYZ.NS (ISC-enriched organoids [1]; Dose 0.40 uM, primary screen): 0.030 log 2 fold change | Z.LYZ.NS (ISC-enriched organoids [1]; [9]): 0.264 | Dose.FC.LYZ.NS (ISC-enriched organoids [1]; Dose 2.00 uM, primary screen): 0.006 log 2 fold change | Z.LYZ.NS (ISC-enriched organoids [1]; [10]): 0.048 | Dose.FC.LYZ.NS (ISC-enriched organoids [1]; Dose 10.00 uM, primary screen): −0.153 log 2 fold change | Z.LYZ.NS (ISC-enriched organoids [1]; [11]): −1.330 | SSMD.LYZ.NS (ISC-enriched organoids [1]; [12]): 0.941 | SSMD.LYZ.NS (ISC-enriched organoids [1]; [13]): 0.239 | SSMD.LYZ.NS (ISC-enriched organoids [1]; [14]): 0.042 | SSMD.LYZ.NS (ISC-enriched organoids [1]; [15]): −0.845 | Dose.FC.CTG (ISC-enriched organoids [2]; Dose 0.08 uM, primary screen): 0.254 log 2 fold change | Z.CTG (ISC-enriched organoids [2]; [8]): 0.607 | Dose.FC.CTG (ISC-enriched organoids [2]; Dose 0.40 uM, primary screen): 0.108 log 2 fold change | Z.CTG (ISC-enriched organoids [2]; [9]): 0.258 | Dose.FC.CTG (ISC-enriched organoids [2]; Dose 2.00 uM, primary screen): 0.092 log 2 fold change | Z.CTG (ISC-enriched organoids [2]; [10]): 0.219 | Dose.FC.CTG (ISC-enriched organoids [2]; Dose 10.00 uM, primary screen): −0.181 log 2 fold change | Z.CTG (ISC-enriched organoids [2]; [11]): −0.433 | SSMD.CTG (ISC-enriched organoids [2]; [12]): 0.552 | SSMD.CTG (ISC-enriched organoids [2]; [13]): 0.331 | SSMD.CTG (ISC-enriched organoids [2]; [14]): 0.282 | SSMD.CTG (ISC-enriched organoids [2]; [15]): −0.531 | Dose.FC.LYZ.S (ISC-enriched organoids [3]; Dose 0.08 uM, primary screen): 0.203 log 2 fold change | Dose.FC.LYZ.S (ISC-enriched organoids [3]; Dose 0.40 uM, primary screen): 0.084 log 2 fold change | Dose.FC.LYZ.S (ISC-enriched organoids [3]; Dose 2.00 uM, primary screen): −0.056 log 2 fold change | Dose.FC.LYZ.S (ISC-enriched organoids [3]; Dose 10.00 uM, primary screen): −0.085 log 2 fold change | Z.LYZ.S (ISC-enriched organoids [3]; [12]): 1.312 | Z.LYZ.S (ISC-enriched organoids [3]; [13]): 0.545 | Z.LYZ.S (ISC-enriched organoids [3]; [14]): −0.365 | Z.LYZ.S (ISC-enriched organoids [3]; [15]): −0.552 | SSMD.LYZ.S (ISC-enriched organoids [3]; [12]): 0.895 | SSMD.LYZ.S (ISC-enriched organoids [3]; [13]): 0.407 | SSMD.LYZ.S (ISC-enriched organoids [3]; [14]): −0.339 | SSMD.LYZ.S (ISC-enriched organoids [3]; [15]): −0.195

CC(C)(C)c1cc(NC(=O)Nc2ccc(-c3cn4c(n3)sc3cc(OCCN5CCOCC5)ccc34)cc2)no1 [Quizartinib (AC220)]
Z.LYZ.NS (standard z score) (ISC-enriched organoids [1]; Dose 0.08 uM, primary screen): 0.836 | Dose.FC.LYZ.NS (log 2 fold change) (ISC-enriched organoids [1]; Dose 0.08 uM, primary screen): 0.096 | Z.LYZ.NS (standard z score) (ISC-enriched organoids [1]; Dose 0.40 uM, primary screen): 0.341 | Dose.FC.LYZ.NS (log 2 fold change) (ISC-enriched organoids [1]; Dose 0.40 uM, primary screen): 0.039 | Z.LYZ.NS (standard z score) (ISC-enriched organoids [1]; Dose 2.00 uM, primary screen): −0.452 | Dose.FC.LYZ.NS (log 2 fold change) (ISC-enriched organoids [1]; Dose 2.00 uM, primary screen): −0.052 | Z.LYZ.NS (standard z score) (ISC-enriched organoids [1]; Dose 10.00 uM, primary screen): −1.505 | Dose.FC.LYZ.NS (log 2 fold change) (ISC-enriched organoids [1]; Dose 10.00 uM, primary screen): −0.173 | Z.CTG (standard z score) (ISC-enriched organoids [2]; Dose 0.08 uM, primary screen): 0.838 | Dose.FC.CTG (log 2 fold change) (ISC-enriched organoids [2]; Dose 0.08 uM, primary screen): 0.351 | Z.CTG (standard z score) (ISC-enriched organoids [2]; Dose 0.40 uM, primary screen): 0.355 | Dose.FC.CTG (log 2 fold change) (ISC-enriched organoids [2]; Dose 0.40 uM, primary screen): 0.149 | Z.CTG (standard z score) (ISC-enriched organoids [2]; Dose 2.00 uM, primary screen): −0.841 | Dose.FC.CTG (log 2 fold change) (ISC-enriched organoids [2]; Dose 2.00 uM, primary screen): −0.352 | Z.CTG (standard z score) (ISC-enriched organoids [2]; Dose 10.00 uM, primary screen): −1.539 | Dose.FC.CTG (log 2 fold change) (ISC-enriched organoids [2]; Dose 10.00 uM, primary screen): −0.644 | Dose.FC.LYZ.S (log 2 fold change) (ISC-enriched organoids [3]; Dose 0.08 uM, primary screen): 0.154 | Dose.FC.LYZ.S (log 2 fold change) (ISC-enriched organoids [3]; Dose 0.40 uM, primary screen): 0.083 | Dose.FC.LYZ.S (log 2 fold change) (ISC-enriched organoids [3]; Dose 2.00 uM, primary screen): −0.077 | Dose.FC.LYZ.S (log 2 fold change) (ISC-enriched organoids [3]; Dose 10.00 uM, primary screen): −0.200
